Source: US6737383B1, “Herbicidal oxadiazolidines” (priority 1999, dated 2004)

What was measured:
Italian ryegrass = assay: Test E Italian ryegrass; type: in vivo, Lolium multiflorum; settings: Postemergence
Method in brief: (§1)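 Postemergence: 60:40 sandy loam/greenhouse potting mix, 1- to 4-leaf stage. Formulation: solvent plus surfactant. Assessment: visual comparison with untreated controls at ~21–28 days.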

Russian thistle = assay: Test E Russian thistle; type: in vivo, Salsola kali; settings: Postemergence
Procedure: […] A mixture of sandy loam soil and greenhouse potting mix in a 60:40 ratio was used for the postemergence test.
(§2) Plantings of these crops and weed species were adjusted to produce plants of appropriate size for the postemergence test. All plant species were grown using normal greenhouse practices. Crop and weed species include annual bluegrass (Poa annua), blackgrass (Alopecurus myosuroides), black nightshade (Solanum nigra), chickweed (Stellaria media), common poppy (Papaver rhoeas), deadnettle (Lamium amplexicaule), downy brome (Bromus tectorum), field violet (Viola arvensis), galium (Galium aparine), green foxtail (Setaria viridis), Italian ryegrass (Lolium multiflorum), jointed goatgrass (Aegilops cylindrica), kochia (Kochia scoparia), lambsquarters (Chenopodium album), littleseed canarygrass (Phalaris minor), rape (Brassica napus), redroot pigweed (Amaranthus retroflexus), Russian thistle (Salsola kali), scentless chamomile (Matricaria inodora), spring barley (Hordeum vulgare), sugar beet (Beta vulgaris), sunflower (Helianthus annuus), ivyleaf speedwell (Veronica hederaefolia), spring wheat (Triticum aestivum), winter wheat (Triticum aestivum), wild buckwheat (Polygonum convolvulus), wild mustard (Sinapis arvensis), wild oat (Avena fatua), windgrass (Apera spica-venti) and winter barley (Hordeum vulgare).
(§3) Treated plants and untreated controls were maintained in a greenhouse for approximately 21 to 28 days, after which all treated plants were compared to untreated controls and visually evaluated. […] A dash response (-) means no test result.

eastern black nightshade = assay: Test C postemergence eastern black nightshade; type: in vivo, Solanum ptycanthum; settings: 0 to 100 scale, 0 no effect, 100 complete control
Method in brief: (§4)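 Soil: sandy loam/potting mix 60:40. Treatment: postemergence, solvent + surfactant formulation. Readout: visual control score 0–100 vs untreated at ~14–21 days.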

wild buckwheat = assay: Test E wild buckwheat; type: in vivo, Polygonum convolvulus; settings: Preemergence
lambsquarters = assay: Test E lambsquarters; type: in vivo, Chenopodium album; settings: Preemergence
kochia = assay: Test E kochia; type: in vivo, Kochia scoparia; settings: Preemergence
common poppy = assay: Test E common poppy; type: in vivo, Papaver rhoeas; settings: Postemergence; for Plant response rating, Comnion poppy: Rate 125 g/ha
Procedure: (§5) Compounds evaluated in this test were formulated in a non-phytotoxic solvent mixture which included a surfactant and applied to plants that were in the 1- to 4-leaf stage (postemergence application). A mixture of sandy loam soil and greenhouse potting mix in a 60:40 ratio was used for the postemergence test.
as §2, §3

jointed goatgrass = assay: Test E jointed goatgrass; type: in vivo, Aegilops cylindrica; settings: Postemergence
Procedure: as §5, §2, §3

black nightshade = assay: Test E black nightshade; type: in vivo, Solanum nigra; settings: Preemergence
annual bluegrass = assay: Test E annual bluegrass; type: in vivo, Poa annua; settings: Preemergence
soybean = assay: Test C postemergence soybean; type: in vivo, Glycine max; settings: 0 to 100 scale, 0 no effect, 100 complete control
Procedure: as §5, with “grown for various periods of time before treatment” for “in the 1- to 4-leaf stage”
(§6) Plantings of these crops and weed species were adjusted to produce plants of appropriate size for the postemergence test. All plant species were grown using normal greenhouse practices. Crop and weed species include arrowleaf sida (Sida rhombifolia), barnyardgrass (Echinochloa crus-galli), cocklebur (Xanthium strumarium), common ragweed (Ambrosia elatior), corn (Zea mays), cotton (Gossypium hirsutum), eastern black nightshade (Solanum ptycanthum), fall panicum (Panicum dichotomiflorum), field bindweed (Convolvulus arvensis), giant foxtail (Setaria faberii), hairy beggarticks (Bidens pilosa), ivyleaf morningglory (Ipomoea hederacea), johnsongrass (Sorghum halepense), ladysthumb smartweed (Polygonum persicaria), lambsquarters (Chenopodium album), large crabgrass (Digitaria sanguinalis), purple nutsedge (Cyperus rotundus), redroot pigweed (Amaranthus retroflexus), soybean (Glycine max), surinam grass (Brachiaria decumbens), velvetleaf (Abutilon theophrasti) and wild poinsettia (Euphorbia heterophylla).
(§7) Treated plants and untreated controls were maintained in a greenhouse for approximately 14, to 21 days, after which all treated plants were compared to untreated controls and visually evaluated. Plant response ratings, summarized in Table C, were based upon a 0 to 100 scale where 0 was no effect and 100 was complete control. A dash response (−) means no test result.

field violet = assay: Test E field violet; type: in vivo, Viola arvensis; settings: Postemergence
Procedure: as §5, §2, §3

arrowleaf sida = assay: Test C postemergence arrowleaf sida; type: in vivo, Sida rhombifolia; settings: 0 to 100 scale, 0 no effect, 100 complete control
Method in brief: as §4

spring wheat [1] = assay: Test E spring wheat; type: in vivo, Triticum aestivum; settings: Preemergence
johnsongrass = assay: Test C postemergence johnsongrass; type: in vivo, Sorghum halepense; settings: 0 to 100 scale, 0 no effect, 100 complete control
Procedure: as §5, with “grown for various periods of time before treatment” for “in the 1- to 4-leaf stage”
as §6, §7

spring wheat [2] = assay: Test E spring wheat; type: in vivo, Triticum aestivum; settings: Postemergence
Procedure: as §5, §2, §3

wild oat = assay: Test E wild oat; type: in vivo, Avena fatua; settings: Postemergence
Method in brief: as §1

[3] = Rate 250 g/ha, 0 to 100 scale (0 no effect, 100 complete control)
[4] = Rate 500 g/ha, 0 to 100 scale, 0 no effect, 100 complete control
[5] = Rate 125 g/ha, 0 to 100 scale (0 no effect, 100 complete control)
[6] = Rate 500 g/ha, 0 to 100 scale where 0 is no effect and 100 is complete control
[7] = Rate 62 g/ha, 0 to 100 scale, 0 no effect, 100 complete control

CCn1c(=O)on(C(=O)N(c2ccc(F)cc2F)C(C)C)c1=O [Compound 116]
30: Plant response rating, Common poppy (common poppy; Rate 62 g/ha, 0 to 100 scale) | Plant response rating, Jointed goatgra (jointed goatgrass; Rate 62 g/ha, 0 to 100 scale) | Plant response rating, Soybean (soybean; Rate 560 g/ha) | Plant response rating, Wild oat (wild oat; [3])
70: Plant response rating, I. Ryegrass (Italian ryegrass; [3]) | Plant response rating, Kochia (kochia; [6]) | Plant response rating, Wild oat (wild oat; [4])
85: Plant response rating, Kochia (kochia; Rate 250 g/ha, 0 to 100 scale) | Plant response rating, Annual bluegras (annual bluegrass; Rate 250 g/ha, 0 to 100 scale) | Plant response rating Arrowleaf sida (arrowleaf sida; Rate 560 g/ha)
15: Plant response rating, Spring Wheat (spring wheat [1]; [5])
60: Plant response rating, Wild buckwheat (wild buckwheat; Rate 250 g/ha, 0 to 100 scale) | Plant response rating, Annual bluegras (annual bluegrass; [5]) | Plant response rating, Field violet (field violet; Rate 62 g/ha, 0 to 100 scale) | Plant response rating Johnsongrass (johnsongrass; Rate 560 g/ha)
90: Plant response rating, Blk nightshade (black nightshade; Rate 250 g/ha, 0 to 100 scale) | Plant response rating Arrowleaf sida (arrowleaf sida; Rate 1120 g/ha)
40: Plant response rating, Russian thistle (Russian thistle; Rate 62 g/ha, 0 to 100 scale) | Plant response rating, Wild buckwheat (wild buckwheat; [5]) | Plant response rating, Jointed goatgra (jointed goatgrass; [3]) | Plant response rating, Soybean (soybean; Rate 1120 g/ha) | Plant response rating Johnsongrass (johnsongrass; Rate 280 g/ha)
20: Plant response rating, Jointed goatgra (jointed goatgrass; Rate 125 g/ha, 0 to 100 scale) | Plant response rating, Wild oat (wild oat; Rate 62 g/ha, 0 to 100 scale)
80: Plant response rating, Blk nightshade (black nightshade; [5]) | Plant response rating, Spring Wheat (spring wheat [1]; Rate 250 g/ha, 0 to 100 scale) | Plant response rating Johnsongrass (johnsongrass; Rate 1120 g/ha)
5: Plant response rating, Spring Wheat (spring wheat [2]; Rate 62 g/ha, 0 to 100 scale)
10: Plant response rating E. blacknightsh (eastern black nightshade; Rate 560 g/ha) | Plant response rating, Common poppy (common poppy; [4]) | Plant response rating, Soybean (soybean; Rate 140 g/ha) | Plant response rating, Soybean (soybean; Rate 280 g/ha) | Plant response rating Johnsongrass (johnsongrass; Rate 140 g/ha) | Plant response rating, Spring Wheat (spring wheat [2]; [3]) | Plant response rating, Spring Wheat (spring wheat [2]; [4])
50: Plant response rating, I. Ryegrass (Italian ryegrass; Rate 125 g/ha, 0 to 100 scale) | Plant response rating E. blacknightsh (eastern black nightshade; Rate 1120 g/ha) | Plant response rating, Jointed goatgra (jointed goatgrass; [4])
0: Plant response rating, I. Ryegrass (Italian ryegrass; Rate 62 g/ha, 0 to 100 scale) | Plant response rating, I. Ryegrass (Italian ryegrass; [4]) | Plant response rating, Russian thistle (Russian thistle; Rate 125 g/ha, 0 to 100 scale) | Plant response rating, Russian thistle (Russian thistle; [3]) | Plant response rating, Russian thistle (Russian thistle; [4]) | Plant response rating E. blacknightsh (eastern black nightshade; Rate 140 g/ha) | Plant response rating E. blacknightsh (eastern black nightshade; Rate 280 g/ha) | Plant response rating, Kochia (kochia; [5]) | Plant response rating, Comnion poppy (common poppy; 0 to 100 scale) | Plant response rating, Common poppy (common poppy; [3]) | Plant response rating, Field violet (field violet; Rate 125 g/ha, 0 to 100 scale) | Plant response rating, Field violet (field violet; [3]) | Plant response rating, Field violet (field violet; [4]) | Plant response rating Arrowleaf sida (arrowleaf sida; Rate 140 g/ha) | Plant response rating, Spring Wheat (spring wheat [2]; Rate 125 g/ha, 0 to 100 scale) | Plant response rating, Wild oat (wild oat; Rate 125 g/ha, 0 to 100 scale)
95: Plant response rating, Wild buckwheat (wild buckwheat; [6])
100: Plant response rating, Lambsquarters (lambsquarters; [5]) | Plant response rating, Lambsquarters (lambsquarters; Rate 250 g/ha, 0 to 100 scale) | Plant response rating, Lambsquarters (lambsquarters; [6]) | Plant response rating, Blk nightshade (black nightshade; [6]) | Plant response rating, Annual bluegras (annual bluegrass; [6]) | Plant response rating, Spring Wheat (spring wheat [1]; [6])

CCn1c(=O)on(C(=O)N(c2ccc(F)cc2)C(C)C)c1=O [Compound 107]
10: Plant response rating, Jointed goatgra (jointed goatgrass; Rate 125 g/ha, 0 to 100 scale) | Plant response rating, Jointed goatgra (jointed goatgrass; [3]) | Plant response rating, Spring Wheat (spring wheat [2]; [3])
60: Plant response rating, Wild buckwheat (wild buckwheat; [7]) | Plant response rating, Kochia (kochia; [5]) | Plant response rating, Spring Wheat (spring wheat [1]; [7])
100: Plant response rating, Lambsquarters (lambsquarters; [7]) | Plant response rating, Lambsquarters (lambsquarters; [5]) | Plant response rating, Lambsquarters (lambsquarters; Rate 250 g/ha, 0 to 100 scale)
30: Plant response rating, I. Ryegrass (Italian ryegrass; [3]) | Plant response rating Arrowleaf sida (arrowleaf sida; Rate 280 g/ha)
0: Plant response rating, I. Ryegrass (Italian ryegrass; Rate 62 g/ha, 0 to 100 scale) | Plant response rating, Russian thistle (Russian thistle; Rate 62 g/ha, 0 to 100 scale) | Plant response rating, Russian thistle (Russian thistle; Rate 125 g/ha, 0 to 100 scale) | Plant response rating, Russian thistle (Russian thistle; [3]) | Plant response rating, Common poppy (common poppy; Rate 62 g/ha, 0 to 100 scale) | Plant response rating, Comnion poppy (common poppy; 0 to 100 scale) | Plant response rating, Jointed goatgra (jointed goatgrass; Rate 62 g/ha, 0 to 100 scale) | Plant response rating, Field violet (field violet; Rate 62 g/ha, 0 to 100 scale) | Plant response rating, Field violet (field violet; [3]) | Plant response rating, Spring Wheat (spring wheat [2]; Rate 62 g/ha, 0 to 100 scale) | Plant response rating, Wild oat (wild oat; [3])
35: Plant response rating Johnsongrass (johnsongrass; Rate 140 g/ha)
95: Plant response rating E. blacknightsh (eastern black nightshade; Rate 1120 g/ha) | Plant response rating, Wild buckwheat (wild buckwheat; Rate 250 g/ha, 0 to 100 scale) | Plant response rating, Blk nightshade (black nightshade; [5]) | Plant response rating, Blk nightshade (black nightshade; Rate 250 g/ha, 0 to 100 scale)
70: Plant response rating E. blacknightsh (eastern black nightshade; Rate 560 g/ha) | Plant response rating, Blk nightshade (black nightshade; [7]) | Plant response rating, Annual bluegras (annual bluegrass; [7]) | Plant response rating, Soybean (soybean; Rate 280 g/ha)
25: Plant response rating, Field violet (field violet; Rate 125 g/ha, 0 to 100 scale)
5: Plant response rating, Common poppy (common poppy; [3]) | Plant response rating, Spring Wheat (spring wheat [2]; Rate 125 g/ha, 0 to 100 scale) | Plant response rating, Wild oat (wild oat; Rate 62 g/ha, 0 to 100 scale) | Plant response rating, Wild oat (wild oat; Rate 125 g/ha, 0 to 100 scale)
50: Plant response rating, I. Ryegrass (Italian ryegrass; Rate 125 g/ha, 0 to 100 scale) | Plant response rating E. blacknightsh (eastern black nightshade; Rate 140 g/ha) | Plant response rating E. blacknightsh (eastern black nightshade; Rate 280 g/ha) | Plant response rating, Kochia (kochia; [7]) | Plant response rating Johnsongrass (johnsongrass; Rate 280 g/ha)
75: Plant response rating Arrowleaf sida (arrowleaf sida; Rate 560 g/ha) | Plant response rating, Spring Wheat (spring wheat [1]; [5])
45: Plant response rating, Soybean (soybean; Rate 140 g/ha)
85: Plant response rating, Annual bluegras (annual bluegrass; Rate 250 g/ha, 0 to 100 scale) | Plant response rating, Soybean (soybean; Rate 560 g/ha) | Plant response rating, Soybean (soybean; Rate 1120 g/ha) | Plant response rating Arrowleaf sida (arrowleaf sida; Rate 1120 g/ha) | Plant response rating, Spring Wheat (spring wheat [1]; Rate 250 g/ha, 0 to 100 scale)
90: Plant response rating, Wild buckwheat (wild buckwheat; [5]) | Plant response rating Johnsongrass (johnsongrass; Rate 560 g/ha) | Plant response rating Johnsongrass (johnsongrass; Rate 1120 g/ha)
80: Plant response rating, Kochia (kochia; Rate 250 g/ha, 0 to 100 scale) | Plant response rating, Annual bluegras (annual bluegrass; [5])
